Data published in article PMC5320522, “Membrane targeting of TIRAP is negatively regulated by phosphorylation in its phosphoinositide-binding motif” (Scientific Reports, 2017).
Read-outs that look alike come from different tables or passages of the source.

Columns and labels:
Assay type in all cases: binding
[1] = target: T1, TIRAP PBM (Homo sapiens, UniProt P58753); assay: 1H, […]-HSQC NMR; lipid-protein overlay; conditions: DPC micelles, pH 6, 25 °C (NMR)
T1 construct: recombinant (isotope-labelled) or synthetic (Thr28-P); GST-fused in overlay assays

[2] = target: T1, TIRAP PBM; assay: SPR, L1 chip with liposomes, steady-state fit; conditions: DOPC liposomes with 5% PtdIns(4,5)P2; 20 mM HEPES pH 7, 100 mM NaCl; room temperature; read-out: KD (apparent)
[3] = target: T1, TIRAP PBM; assay: SPR, L1 chip with liposomes, steady-state fit; conditions: DOPC liposomes with 5% PtdIns(4,5)P2; 20 mM HEPES pH 7, 100 mM NaCl; room temperature; synthetic peptide phosphorylated at Thr28; saturation not reached

T1 sequence (P58753 15-35): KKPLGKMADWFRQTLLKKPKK

Kd [2] [µM]	Kd [3] [µM]	Molecule	1H,15N-HSQC NMR; lipid-protein overlay [1]
		CCCCCCCCCCCCCCCC(=O)OC[C@H](COP(=O)(O)O[C@@H]1[C@H](O)[C@H](O)[C@@H](OP(=O)(O)O)[C@H](OP(=O)(O)O)[C@H]1O)OC(=O)CCCCCCCCCCCCCCC [c16-PtdIns(4,5)P2]	Similar, but larger, resonance perturbations in DPC-embedded TIRAP PBM spectra were observed
0.233 ± 0.045	0.787 ± 0.291	PtdIns(4,5)P2	
